Where a name gives a salt, the structure may show the parent alone. *1 amine or outer side, *2 acyl side, *3 side chain or, on linkers, in order; H or OH if unused. Where a SMILES comes first, the peptide text is derived from it. [ ]: non-standard residue; d: D form. The star is where a group is joined. X1 = CCCNC(=O)Nc1cccc(S(=O)(=O)Nc2cccc([C@@H](CC(=O)O)NC(=O)Nc3ccc(N*)cc3)c2)c1; Camptothecin(7-Et) = CCc1c2c(nc3ccccc13)-c1cc3c(c(=O)n1C2)COC(=O)[C@@]3(CC)O*; CO = O=C([*:1])[*:2]; Sar = CNCC(=O)O
Columns and labels:
[1] = system: 786-O; assay: Cytotoxicity assay (Version 2), automated, AC50; assay type: cell-based, human; settings: 786-O cells, Version 2, activity concentration at -50%, 4 parameter Hill-fit
Description: (§1) Cultivation of cells was performed according to standard procedures with the media recommended by the provider. The cells, in a total volume of 100 μL, were seeded in a 96-well plate with a white bottom (#3610). After a 24 h incubation period at 37° C. and 5% CO2, the medium was exchanged by adding 90 μL fresh medium. The treatment started by adding the test compound in 10 μL of culture medium to the cells in triplicates. Concentrations ranging from 10^−5 M to 10^−13 M were chosen. Two identically treated sets of samples were prepared. One set was treated with the test compound alone, whereas to the second set the compound and 10 nM elastase was added followed by a 72 h incubation period at 37° C. and 5% CO2. The proliferation was detected using the MTT assay (ATCC). At the end of the incubation period the MTT reagent was added to all samples for 4h. Lysis of the cells followed by addition of the detergent was done overnight. The formed dye was detected at 570 nm. The proliferation of untreated but otherwise identically handled cells was define as the […].
(§2) The Cytotoxicity assay (Version 2) was performed as above described. Some changes were applied as the assays were performed in an automated fashion and the IC50 values determination was changed. Here the change in metabolic activity of the cells, in percent, was calculated by normalization of the measured values to the absorbance values of medium containing wells without cells (=−100% ) and the absorbance of the DMSO-treated cells (=0% ). AC50 values (activity concentration at -50% o) were determined by means of a 4 parameter Hill-fit using GeneData Screener software.

[2] = system: HT29; assay: Cytotoxicity assay (Version 2), automated, AC50; assay type: cell-based, human; settings: HT29 cells, Version 2, activity concentration at -50%, 4 parameter Hill-fit
Description: as §1, §2

[3] = system: NCI H292; assay: Cytotoxicity assay (Version 2), automated, AC50; assay type: cell-based, human; settings: NCI H292 cells, Version 2, activity concentration at -50%, 4 parameter Hill-fit
Description: as §1, §2

[4] = system: SUM149; assay: Cytotoxicity assay (Version 2), automated, AC50; assay type: cell-based; settings: SUM149 cells, Version 2, activity concentration at -50%, 4 parameter Hill-fit
Description: as §1, §2

[5] = system: 786-O; assay: Cytotoxicity in vitro in the presence and absence of elastase (MTT assay); assay type: cell-based, human; settings: 786-O cells, 72 h
Description: as §1

[6] = system: HT29; assay: as above; assay type: cell-based, human; settings: HT29 cells, 72 h
Description: as §1

[7] = system: NCI H292; assay: as above; assay type: cell-based, human; settings: NCI H292 cells, 72 h
Description: as §1

[8] = system: SUM149; assay: as above; assay type: cell-based; settings: SUM149 cells, 72 h
Description: as §1

[9] = Pharmacokinetics in rat after intravenous administration; assay type: in vivo; settings: male rats, intravenous 0.5 mg/kg bolus, plasma, non-compartmental analysis
Description: Male rats (n=3) were given an intravenous 0.5 mg/kg bolus dose of test article dissolved in plasma with 1% DMSO and 1% ethanol (Ex A3 only). Serial blood samples were collected up to 24 hours post-dose. Plasma was harvested from blood samples and stored frozen until sample analysis. Test article plasma concentrations were analyzed by LC/MS/MS.

SMILES | AC50 ([1]; no elastase) | AC50 ([1]; with elastase) | AC50 ([2]; no elastase) | AC50 ([2]; with elastase) | AC50 ([3]; no elastase) | AC50 ([3]; with elastase) | AC50 ([4]; no elastase) | AC50 ([4]; with elastase) | IC50 ([5]; compound alone (no elastase)) | IC50 ([5]; with 10 nM elastase) | IC50 ([6]; compound alone (no elastase)) | IC50 ([6]; with 10 nM elastase) | IC50 ([7]; compound alone (no elastase)) | IC50 ([7]; with 10 nM elastase) | IC50 ([8]; compound alone (no elastase)) | IC50 ([8]; with 10 nM elastase) | AUC [9] | clearance [9] | half-life [9] | Vd ([9]; read-out: Vss)
CCCNC(=O)Nc1cccc(S(=O)(=O)Nc2cccc([C@@H](CC(=O)O)NC(=O)Nc3ccc(NC(=O)NCCOCCOCCOCCC(=O)NCCNC(=O)CC[C@H](NC(=O)CCCC(=O)NCCN(C)CCN(C)CCN(C)CC(=O)N[C@@H](CC(N)=O)C(=O)N4CCC[C@H]4C(=O)N[C@H](C(=O)O[C@]4(CC)C(=O)OCc5c4cc4n(c5=O)Cc5c-4nc4ccccc4c5CC)C(C)C)C(=O)NCCNC(=O)CCOCCOCCOCCNC(=O)Nc4ccc(NC(=O)N[C@H](CC(=O)O)c5cccc(NS(=O)(=O)c6cccc(NC(=O)NCCC)c6)c5)cc4)cc3)c2)c1 [Compound A9] | 110 to 1000 nM | ≤ 10 nM | > 1000 nM | 11 to 100 nM | 110 to 1000 nM | ≤ 10 nM | 110 to 1000 nM | ≤ 10 nM |  |  |  |  |  |  |  |  |  |  |  | 
CCCNC(=O)Cc1cccc(S(=O)(=O)Nc2cccc([C@@H](CC(=O)O)NC(=O)Nc3ccc(NC(=O)NCCOCCOCCOCCC(=O)NCCNC(=O)[C@H](CCC(=O)NCCNC(=O)CCOCCOCCOCCNC(=O)Nc4ccc(NC(=O)N[C@H](CC(=O)O)c5cccc(NS(=O)(=O)c6cccc(NC(=O)NCCC)c6)c5)cc4)NC(=O)CCCC(=O)NCCN(C)CCN(C)CCN(C)CC(=O)NCC(=O)N4CCC[C@H]4C(=O)N[C@H](C(=O)O[C@]4(CC)C(=O)OCc5c4cc4n(c5=O)Cc5c-4nc4ccccc4c5CC)C(C)C)cc3)c2)c1 [Compound A11] | 11 to 100 nM | ≤ 10 nM | 110 to 1000 nM | 11 to 100 nM | ≤ 10 nM | ≤ 10 nM | ≤ 10 nM | ≤ 10 nM |  |  |  |  |  |  |  |  |  |  |  | 
CCCNC(=O)Nc1cccc(S(=O)(=O)Nc2cccc([C@H](CC(=O)O)NC(=O)Nc3ccc(NC(=O)NCCOCCOCCOCCC(=O)NCCNC(=O)CC[C@H](NC(=O)CCCC(=O)NCCN(C)CCN(C)CCN(C)CC(=O)NCC(=O)N4CCC[C@H]4C(=O)N[C@H](C(=O)O[C@]4(CC)C(=O)OCc5c4cc4n(c5=O)Cc5c-4nc4ccccc4c5CC)C(C)C)C(=O)NCCNC(=O)CCOCCOCCOCCNC(=O)Nc4ccc(NC(=O)N[C@@H](CC(=O)O)c5cccc(NS(=O)(=O)c6cccc(NC(=O)NCCC)c6)c5)cc4)cc3)c2)c1 [Compound A12] | ≤ 10 nM | ≤ 10 nM | 110 to 1000 nM | 11 to 100 nM | 11 to 100 nM | ≤ 10 nM | ≤ 10 nM | ≤ 10 nM |  |  |  |  |  |  |  |  |  |  |  | 
CCCNC(=O)Nc1cccc(S(=O)(=O)Nc2cccc([C@@H](CC(=O)O)NC(=O)Nc3ccc(NC(=O)NCCN(C)CCN(C)CCN(C)CC(=O)N[C@@H](CC(N)=O)C(=O)N4CCC[C@H]4C(=O)N[C@H](C(=O)O[C@]4(CC)C(=O)OCc5c4cc4n(c5=O)Cc5c-4nc4ccccc4c5CC)C(C)C)cc3)c2)c1.Cl.Cl.Cl [Compound B4b, (4S)-4,11-diethyl-3,14-dioxo-3,4,12,14-tetrahydro-1H-pyrano[3′,4′:6,7]indolizino[1,2-b]quinolin-4-yl N^2-{13-[4-({[(1R)-2-carboxy-1-{3-[({3-[(propylcarbamoyl)amino]phenyl}sulfonyl)amino]phenyl}ethyl]carbamoyl}amino)anilino]-3,6,9-trimethyl-13-oxo-12-aza-3,6,9-triazoniatridecan-1-oyl}-L-asparaginyl-L-prolyl-L-valinate trichloride] |  |  |  |  |  |  |  |  | 10 to 100 nM | 0.1 to 1 nM | 10 to 100 nM | 0.1 to 1 nM | 10 to 100 nM | 0.1 to 1 nM | 10 to 100 nM | 0.01 to 0.1 nM | 1000 to 10000 ng·h/mL | 0.5 to 5 mL/min/kg | 5 to 10 h | > 0.1 L/kg
CCCNC(=O)Nc1cccc(S(=O)(=O)Nc2cccc([C@@H](CC(=O)O)NC(=O)Nc3ccc(NC(=O)N(C)CC(=O)N(C)CC(=O)N(C)CC(=O)N(C)CC(=O)N[C@@H](CC(=O)O)C(=O)N4CCC[C@H]4C(=O)N[C@H](C(=O)O[C@]4(CC)C(=O)OCc5c4cc4n(c5=O)Cc5c-4nc4ccccc4c5CC)C(C)C)cc3)c2)c1 [Compound B6] ({X1-CO}-[Sar][Sar][Sar][Sar]DPV-{Camptothecin(7-Et)}) | 110 to 1000 nM | ≤ 10 nM | > 1000 nM | 11 to 100 nM | 110 to 1000 nM | ≤ 10 nM | 110 to 1000 nM | ≤ 10 nM |  |  |  |  |  |  |  |  |  |  |  | 
CCCNC(=O)Nc1cccc(S(=O)(=O)Nc2cccc([C@@H](CC(=O)O)NC(=O)Nc3ccc(NC(=O)NCCOCCOCCOCCC(=O)N[C@@H](CC(=O)OCCC[N+](C)(C)C)C(=O)N4CCC[C@H]4C(=O)N[C@H](C(=O)O[C@]4(CC)C(=O)OCc5c4cc4n(c5=O)Cc5c-4nc4ccccc4c5CC)C(C)C)cc3)c2)c1 [Compound C5, trifluoroacetate] | 110 to 1000 nM | ≤ 10 nM | > 1000 nM | 11 to 100 nM | 110 to 1000 nM | ≤ 10 nM | 110 to 1000 nM | ≤ 10 nM |  |  |  |  |  |  |  |  |  |  |  | 
CCCNC(=O)Nc1cccc(S(=O)(=O)Nc2cccc([C@@H](CC(=O)O)NC(=O)Nc3ccc(NC(=O)NCCOCCOCCOCCC(=O)N[C@@H](CC(=O)O)C(=O)N4CCC[C@H]4C(=O)N[C@@H](C)C(=O)O[C@]4(CC)C(=O)OCc5c4cc4n(c5=O)Cc5c-4nc4ccccc4c5CC)cc3)c2)c1 [Compound C10, disodium (4S)-4,11-diethyl-3,14-dioxo-3,4,12,14-tetrahydro-1H-pyrano[3′,4′:6,7]indolizino[1,2-b]quinolin-4-yl 1-[(2S)-2-(carboxylatomethyl)-17-{4-[({(1R)-2-carboxylato-1-[3-({3-[(propylcarbamoyl)amino]benzene-1-sulfonyl}amino)phenyl]ethyl}carbamoyl)amino]anilino}-4,17-dioxo-7,10,13-trioxa-3,16-diazaheptadecanan-1-oyl]-L-prolyl-L-alaninate] | 11 to 100 nM | ≤ 10 nM | 110 to 1000 nM | 11 to 100 nM | 11 to 100 nM | ≤ 10 nM | 11 to 100 nM | ≤ 10 nM |  |  |  |  |  |  |  |  |  |  |  | 
CCCNC(=O)Nc1cccc(S(=O)(=O)Nc2cccc([C@@H](CC(=O)O)NC(=O)Nc3ccc(NC(=O)N(C)CC(=O)N(C)CC(=O)N(C)CC(=O)N(C)CC(=O)N(C)CC(=O)N(C)CC(=O)N(C)CC(=O)N(C)CC(=O)N[C@@H](CC(=O)O)C(=O)N4CCC[C@H]4C(=O)N[C@H](C(=O)O[C@]4(CC)C(=O)OCc5c4cc4n(c5=O)Cc5c-4nc4ccccc4c5CC)C(C)C)cc3)c2)c1 [Compound D3] ({X1-CO}-[Sar][Sar][Sar][Sar][Sar][Sar][Sar][Sar]DPV-{Camptothecin(7-Et)}) | 110 to 1000 nM | ≤ 10 nM | 110 to 1000 nM | 11 to 100 nM | 110 to 1000 nM | ≤ 10 nM | 110 to 1000 nM | ≤ 10 nM |  |  |  |  |  |  |  |  |  |  |  | 
